Measurements reported in patent US9365522B2, “Pyrazole amide derivative” (AMGEN INC., priority 2015, dated 2016).
Read-outs that look alike come from different tables or passages of the source.

Biological target: T1, ligand binding domain of human ROR gamma (Homo sapiens, UniProt P51449)
T1 construct: NM_001001523; expressed in transfected cells; host or cells: HEK293T
T1 sequence (P51449 247-497 isoform P51449-2): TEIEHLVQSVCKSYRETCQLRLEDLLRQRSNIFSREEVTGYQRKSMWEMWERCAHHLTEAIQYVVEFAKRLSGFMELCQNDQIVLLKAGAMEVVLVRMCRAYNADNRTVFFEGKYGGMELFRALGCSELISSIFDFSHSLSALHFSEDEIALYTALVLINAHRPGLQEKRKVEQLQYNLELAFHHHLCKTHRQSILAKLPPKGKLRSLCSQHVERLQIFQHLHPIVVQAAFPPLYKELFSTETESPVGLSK
Assay: ROR gamma reporter gene assay (GAL4-RORγ LBD luciferase, Dual-Glo)
Assay type: cell-based
Details: HEK293T cells transfected with pM-ROR gamma, 8 concentrations 3.5 nM to 10.5 μM, 24 h incubation
Procedure: Luciferase reporter gene assay was used to assess inhibition of RORγ transcriptional activity.
ROR gamma expression vector was prepared by inserting the ligand binding domain of human ROR gamma (amino acid 247-497 of Genbank Accession NO. NM_001001523) adjacent to the yeast GAL4 transcription factor DNA binding domain in the expression vector pM (Clontech). The resulting expression vector pM-ROR gamma was used in transfection experiments together with the pGL4 luciferase reporter plasmid (Promega) containing five copies of the UAS GAL4 recognition site and pRL-CMV plasmids (Promega) containing the constitutive CMV promoter and the renilla luciferase.
For preparing transfection reagent/DNA mixture, 1 μg pM-ROR gamma, 1 μg pGL4 5×UAS, 625 pg pRL-CMV and 6.25 μL FuGENE™ HD transfection reagent (Promega) were mixed in 0.25 mL OPTI-MEM™ (Life technologies) at room temperature. At the same time, Negative control DNA mixture was prepared by using 1 μg pM empty vector instead of pM-ROR gamma plasmid. After a fifteen minute incubation, 0.25 mL of transfection reagent/DNA mixture was added to 1,000,000 of HEK293T cells (ATCC) in 5 mL of OPTI-MEM™ containing 10% Charcoal Stripped Fetal Bovine Serum.
Transfected cells were seeded onto 384 well plate (10 μL/well) and the 7.5 nL of test compounds were added to the wells in 8 concentrations ranging from 3.5 nM to 10.5 μM. The compounds were dissolved in 100% DMSO and the final concentration of DMSO in the assay was 0.075%.
After 24 h of incubation at 37° C., 5% CO2 in a cell culture incubator, the Dual-Glo™ Luciferase Assay System was used to detect activity according to the manufacturer's instructions (Promega, Cat. No.: E2920).
Data was plotted and pIC50 values were calculated using the XLfit program (ID Business Solutions Ltd.).

[1] = read-out: result (pIC50, inhibition of RORγ transcriptional activity) (converted)

SMILES: CC1(C)CC[C@@H](CN(CC(=O)c2c(Cl)cncc2Cl)C(=O)c2cnn([C@H]3CC[C@H](C(=O)O)CC3)c2C(F)(F)F)O1 (relative stereo) [Example 14, trans-4-(4-((2-(3,5-dichloropyridin-4-yl)-2-oxoethyl)(((S)-5,5-dimethylTHF-2-yl)methyl)carbamoyl)-5-(trifluoromethyl)-1H-pyrazol-1-yl)cyclohexanecarboxylic acid]
- result (pIC50, inhibition of RORγ transcriptional activity): 7.12

SMILES: CC1(C)CCC(N(CC(O)c2c(Cl)cc(F)cc2Cl)C(=O)c2cnn([C@H]3CC[C@](C)(C(=O)O)CC3)c2C(F)(F)F)CC1 (single isomer, unassigned) [Example 361, trans-4-(4-(((2R)-2-(2,6-dichloro-4-fluorophenyl)-2-hydroxyethyl)-(4,4-dimethylcyclohexyl)carbamoyl)-5-(trifluoromethyl)pyrazol-1-yl)-1-methylcyclohexane-1-carboxylic acid or trans-4-(4-(((2S)-2-(2,6-dichloro-4-fluorophenyl)-2-hydroxyethyl)-(4,4-dimethylcyclohexyl)carbamoyl)-5-(trifluoromethyl)pyrazol-1-yl)-1-methylcyclohexane-1-carboxylic acid]
- IC50 [1]: 1.2e+06 pM

SMILES: CC1(C)CCC(N(CC(O)c2c(Cl)cc(F)cc2Cl)C(=O)c2cnn([C@H]3CC[C@](C)(C(=O)O)CC3)c2C(F)(F)F)CC1 (single isomer, unassigned) [Example 362, trans-4-(4-(((2R)-2-(2,6-dichloro-4-fluorophenyl)-2-hydroxyethyl)-(4,4-dimethylcyclohexyl)carbamoyl)-5-(trifluoromethyl)pyrazol-1-yl)-1-methylcyclohexane-1-carboxylic acid or trans-4-(4-(((2S)-2-(2,6-dichloro-4-fluorophenyl)-2-hydroxyethyl)-(4,4-dimethylcyclohexyl)carbamoyl)-5-(trifluoromethyl)pyrazol-1-yl)-1-methylcyclohexane-1-carboxylic acid]
- IC50 [1]: 57500 pM

SMILES: O=C(CN(Cc1ccc(F)cc1)C(=O)c1cnn([C@H]2CCC(C(=O)O)C2)c1C(F)(F)F)c1c(Cl)cncc1Cl (stereo in doubt) [Example 93, (1S,3S)-3-(4-((2-(3,5-dichloropyridin-4-yl)-2-oxoethyl)-((4-fluorophenyl)methyl)carbamoyl)-5-(trifluoromethyl)pyrazol-1-yl)cyclopentane-1-carboxylic acid]
- IC50 [1]: 575000 pM

SMILES: CC(C)(C)CN(C[C@H](O)c1ncccc1Cl)C(=O)c1cnn([C@H]2CC[C@](C)(C(=O)O)CC2)c1C(F)(F)F (stereo in doubt) [Example 402, trans-4-(4-((2-(3-chloropyridin-2-yl)-2-hydroxyethyl)-(2,2-dimethylpropyl)carbamoyl)-5-(trifluoromethyl)pyrazol-1-yl)-1-methylcyclohexane-1-carboxylic acid]
- IC50 [1]: ≥ 1.05e+07 pM

SMILES: CC(C)(C)CN(C[C@@H](O)c1ncccc1Cl)C(=O)c1cnn([C@H]2CC[C@](C)(C(=O)O)CC2)c1C(F)(F)F (stereo in doubt) [Example 403, trans-4-(4-((2-(3-chloropyridin-2-yl)-2-hydroxyethyl)-(2,2-dimethylpropyl)carbamoyl)-5-(trifluoromethyl)pyrazol-1-yl)-1-methylcyclohexane-1-carboxylic acid]
- IC50 [1]: 1.74e+06 pM

SMILES: O=C(CN(Cc1ccc(F)cc1)C(=O)c1cnn([C@H]2CC[C@H](C(=O)O)CC2)c1C(F)(F)F)c1c(Cl)cncc1Cl [Example 1, trans-4-(4-((2-(3,5-dichloropyridin-4-yl)-2-oxoethyl)(4-fluorobenzyl)carbamoyl)-5-(trifluoromethyl)-1H-pyrazol-1-yl)cyclohexanecarboxylic acid]
- IC50 [1]: 24000 pM

SMILES: C[C@]1(C(=O)O)CC[C@H](n2ncc(C(=O)N(CC(=O)c3c(Cl)cc(F)cc3Cl)Cc3cc(F)cc(F)c3)c2C(F)(F)F)CC1 [Example 2, trans-4-(4-((2-(2,6-dichloro-4-fluorophenyl)-2-oxoethyl)(3,5-difluorobenzyl)carbamoyl)-5-(trifluoromethyl)-1H-pyrazol-1-yl)-1-methylcyclohexanecarboxylic acid]
- IC50 [1]: 7590 pM

SMILES: Cc1csc(C)c1C(=O)CN(Cc1cc(F)cc(F)c1)C(=O)c1cnn([C@H]2CC[C@H](C(=O)O)CC2)c1C(F)(F)F [Example 3, trans-4-(4-((3,5-difluorobenzyl)(2-(2,4-dimethylthiophen-3-yl)-2-oxoethyl)carbamoyl)-5-(trifluoromethyl)-1H-pyrazol-1-yl)cyclohexanecarboxylic acid]
- IC50 [1]: > 1e+07 pM

SMILES: CS(=O)(=O)c1cc(Cl)c(C(=O)CN(Cc2cc(F)cc(F)c2)C(=O)c2cnn([C@H]3CC[C@H](C(=O)O)CC3)c2C(F)(F)F)c(Cl)c1 [Example 4, trans-4-(4-((2-(2,6-dichloro-4-(methylsulfonyl)phenyl)-2-oxoethyl)(3,5-difluorobenzyl)carbamoyl)-5-(trifluoromethyl)-1H-pyrazol-1-yl)cyclohexanecarboxylic acid]
- IC50 [1]: 380000 pM

SMILES: O=C(CN(Cc1cc(F)cc(F)c1)C(=O)c1cnn([C@H]2CC[C@H](C(=O)NO)CC2)c1C(F)(F)F)c1c(Cl)cncc1Cl [Example 5, N-(2-(3,5-dichloropyridin-4-yl)-2-oxoethyl)-N-(3,5-difluorobenzyl)-1-(trans-4-(hydroxycarbamoyl)cyclohexyl)-5-(trifluoromethyl)-1H-pyrazole-4-carboxamide]
- IC50 [1]: 209000 pM

SMILES: CONC(=O)[C@H]1CC[C@H](n2ncc(C(=O)N(CC(=O)c3c(Cl)cncc3Cl)Cc3cc(F)cc(F)c3)c2C(F)(F)F)CC1 [Example 6, N-(2-(3,5-dichloropyridin-4-yl)-2-oxoethyl)-N-(3,5-difluorobenzyl)-1-(trans-4-(methoxycarbamoyl)cyclohexyl)-5-(trifluoromethyl)-1H-pyrazole-4-carboxamide]
- IC50 [1]: 87100 pM

SMILES: COc1cccc(O)c1C(=O)CN(Cc1cc(F)cc(F)c1)C(=O)c1cnn([C@H]2CC[C@H](C(=O)O)CC2)c1C(F)(F)F [Example 7, trans-4-(4-((3,5-difluorobenzyl)(2-(2-hydroxy-6-methoxyphenyl)-2-oxoethyl)carbamoyl)-5-(trifluoromethyl)-1H-pyrazol-1-yl)cyclohexanecarboxylic acid]
- IC50 [1]: 4.57e+06 pM

SMILES: O=C(CN(Cc1cc(F)cc(F)c1)C(=O)c1cnn([C@H]2CC[C@H](C(=O)O)CC2)c1C(F)(F)F)c1cc[nH]n1 [Example 8, trans-4-(4-((3,5-difluorobenzyl)(2-oxo-2-(1H-pyrazol-3-yl)ethyl)carbamoyl)-5-(trifluoromethyl)-1H-pyrazol-1-yl)cyclohexanecarboxylic acid]
- IC50 [1]: > 1e+07 pM

SMILES: O=C(CN(Cc1cc(F)cc(F)c1)C(=O)c1cnn(C2CCC(C(=O)O)CC2)c1C(F)(F)F)c1c(O)cccc1O (stereo not drawn) [Example 9, 4-(4-((3,5-difluorobenzyl)(2-(2,6-dihydroxyphenyl)-2-oxoethyl)carbamoyl)-5-(trifluoromethyl)-1H-pyrazol-1-yl)cyclohexanecarboxylic acid]
- IC50 [1]: > 1e+07 pM

SMILES: O=C(c1cnn([C@H]2CC[C@H](C(=O)O)CC2)c1C(F)(F)F)N(Cc1cc(F)cc(F)c1)CC(F)(F)c1c(Cl)cncc1Cl [Example 10, trans-4-(4-((2-(3,5-dichloropyridin-4-yl)-2,2-difluoroethyl)(3,5-difluorobenzyl)carbamoyl)-5-(trifluoromethyl)-1H-pyrazol-1-yl)cyclohexanecarboxylic acid]
- IC50 [1]: 25700 pM

SMILES: Nc1cccc(Cl)c1C(=O)CN(Cc1cc(F)cc(F)c1)C(=O)c1cnn([C@H]2CC[C@H](C(=O)O)CC2)c1C(F)(F)F [Example 11, trans-4-(4-((2-(2-amino-6-chlorophenyl)-2-oxoethyl)(3,5-difluorobenzyl)carbamoyl)-5-(trifluoromethyl)-1H-pyrazol-1-yl)cyclohexanecarboxylic acid]
- IC50 [1]: 38000 pM

SMILES: O=C(CN(Cc1cc(F)cc(F)c1)C(=O)c1cnn([C@H]2CC[C@H](C(=O)O)CC2)c1C(F)(F)F)c1c(O)nc(O)nc1O [Example 12, trans-4-(4-((3,5-difluorobenzyl)(2-oxo-2-(2,4,6-trihydroxypyrimidin-5-yl)ethyl)carbamoyl)-5-(trifluoromethyl)-1H-pyrazol-1-yl)cyclohexanecarboxylic acid]
- IC50 (result (pIC50, inhibition of RORγ transcriptional activity)): 3.72e+06 pM
